We go through 1 compound from patent US20050063998A1, “Oral solution containing galantamine and a sweetening agent” (priority 1999, published 2005).

“Also recorded” adds a separate entry of the source. Counter-ions that a name gives are not always drawn.

The series in a line: Stability of a galantamine hydrobromide aqueous solution as a function of pH (HPLC, degradation products). It is filed as physicochemical. The note with it: 10 mg/ml aqueous solution; neutral (water pH 5.2); 80° C.; storage 24 hours. How it is done:
(c) Stability of a Galantamine Hydrobromide Aqueous Solution as a Function of pH
A galantamine hydrobromide 10 mg/ml aqueous solution was stored in acid, neutral and alkaline conditions at 80° C. for 1 up to 24 hours. After storage, the solutions were analyzed using HPLC for the presence of degradation products.

As for `COc1ccc2c3c1O[C@H]1C[C@@H](O)C=C[C@@]31CCN(C)C2` [Galantamine hydrobromide, [4aS-(4aα, 6β, 8aR*)]-4a, 5,9,10,11,12-hexa-hydro-3-methoxy-11-methyl-6H-benzofuro[3a,3,2-ef][2]benzazepin-6-ol], the Degradation compounds result is recorded as “remained stable; also recorded: No degradation detected”.
